Positions count from the first letter of the chain named.
How the values were obtained:
[1] = biological target: T1, 5-HT3AB receptor, 5-HT3B subunit F130A (Homo sapiens, UniProt O95264+P46098, F123A); assay: cell-based
T1 sequence (P46098 24-478): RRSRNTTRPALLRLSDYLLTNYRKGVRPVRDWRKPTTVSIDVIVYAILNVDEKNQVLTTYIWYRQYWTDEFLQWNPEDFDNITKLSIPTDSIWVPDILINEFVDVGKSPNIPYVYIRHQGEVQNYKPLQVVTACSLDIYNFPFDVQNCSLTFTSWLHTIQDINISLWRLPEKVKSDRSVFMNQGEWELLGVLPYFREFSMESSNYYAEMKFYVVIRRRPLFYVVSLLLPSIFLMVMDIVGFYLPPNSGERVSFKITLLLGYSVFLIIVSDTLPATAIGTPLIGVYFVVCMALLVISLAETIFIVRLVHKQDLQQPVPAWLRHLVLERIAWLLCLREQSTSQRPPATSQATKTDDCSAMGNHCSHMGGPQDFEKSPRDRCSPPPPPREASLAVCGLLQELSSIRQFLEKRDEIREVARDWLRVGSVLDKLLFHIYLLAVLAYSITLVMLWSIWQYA
T1 sequence (O95264 22-441 F123A): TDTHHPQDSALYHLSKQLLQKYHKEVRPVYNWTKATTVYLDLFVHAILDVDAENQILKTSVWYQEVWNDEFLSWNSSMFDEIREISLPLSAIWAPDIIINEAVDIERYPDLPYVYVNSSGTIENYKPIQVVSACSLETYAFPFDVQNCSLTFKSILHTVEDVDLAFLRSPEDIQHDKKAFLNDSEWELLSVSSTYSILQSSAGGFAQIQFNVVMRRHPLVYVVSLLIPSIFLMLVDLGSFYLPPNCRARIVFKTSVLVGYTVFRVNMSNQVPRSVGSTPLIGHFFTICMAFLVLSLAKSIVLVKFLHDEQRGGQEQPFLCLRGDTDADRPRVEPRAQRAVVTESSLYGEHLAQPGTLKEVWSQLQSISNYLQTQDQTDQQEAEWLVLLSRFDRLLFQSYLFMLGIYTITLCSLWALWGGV
Procedure: Human embryonic kidney (HEK) 293 cells were cultured on 90 mm tissue culture plates at 37 °C and 7% CO2 in a humidified atmosphere. They were grown in DMEM:F12 (Dulbecco’s Modified Eagle’s Medium/Nutrient Mix F12 (1:1)) with GlutaMAX I™ containing 10% fetal calf serum and passaged when confluent. […] For FlexStation assays, transfected cells were plated on 96-well plates and incubated 1–2 days before assay.
(§1) Fluorometric studies were undertaken using a FlexStation® (Molecular Devices, Sunnyvale, CA, USA) as previously described.[11]
(§2) Fluorescence was measured every 2 s for 200 s. […] Concentration–response and inhibition curves were obtained for each mutant, and the fluorescence values were normalized to the maximal response.

[2] = biological target: T2, 5-HT3A receptor W183C (Homo sapiens, UniProt P46098, W178C); assay: radioligand saturation binding, transfected HEK293 membranes; conditions: [3H]-palonosetron saturation, 5-HT3A W183C, 4 °C, 24 h, NB = no binding
T2 sequence (P46098 24-478 W178C): T1 sequence (P46098 24-478) with W155C
Procedure: Human embryonic kidney (HEK) 293 cells were cultured on 90 mm tissue culture plates at 37 °C and 7% CO2 in a humidified atmosphere. They were grown in DMEM:F12 (Dulbecco’s Modified Eagle’s Medium/Nutrient Mix F12 (1:1)) with GlutaMAX I™ containing 10% fetal calf serum and passaged when confluent. For radioligand binding studies, cells in 90 mm dishes were transfected at 60–70% confluency using polyethyleneimine and incubated for 3–4 days before use. For FlexStation assays, transfected cells were plated on 96-well plates and incubated 1–2 days before assay. […]
Eight-point binding assays were performed to produce saturation binding curves. […] Radioactive counts were measured using a Beckman LS6000SC liquid scintillation counter (Fullerton, California, USA).
Data were analyzed by iterative curve fitting using GraphPad Prism v5 (San Diego, CA) according to the following equation: B=Bmax[L]^n/kdn+[L]^n where B is the amount of bound radioligand, Bmax is the maximum specific binding at equilibrium, [L] is the concentration of radioligand, Kd is the equilibrium dissociation constant of the radioligand, and n is the Hill coefficient.

[3] = biological target: T3, 5-HT3AB receptor, 5-HT3B subunit I183A (Homo sapiens, UniProt O95264+P46098, I176A); assay: cell-based
T3 sequence (P46098 24-478): T1 sequence (P46098 24-478)
T3 sequence (O95264 22-441 I176A): T1 sequence (O95264 22-441 F123A) with A102F, I155A
Procedure: For FlexStation assays, transfected cells were plated on 96-well plates and incubated 1–2 days before assay.
as §1, §2

In the case of O=C1c2cccc3c2[C@H](CCC3)CN1[C@@H]1CN2CCC1CC2 [Palonosetron], the IC50 [1] is reported as 0.84 ± 0.11 nM, the Kd [2] is reported as greater than 2 nM and the Kd ([2]; listed as [^3H]palonosetron) is reported as “no saturable, specific binding”. It also gave an IC50 [3] of 0.34 ± 0.08 nM.

Reference: article PMC3898987 (Bioorganic & Medicinal Chemistry, 2013)
